Results taken from the NIST ThermoML archive (doi:10.1021/je5009119).

What was measured:
[1] = 101.33 kPa, Liquid; for viscosity: Capillary tube (Ostwald / Ubbelohde) method; for mass density: Pycnometric method
[2] = mn = molality of the nth substance listed, in mol/kg; conditions: 101 kPa, Liquid; for viscosity: Capillary tube (Ostwald / Ubbelohde) method; for mass density: Pycnometric method

OCCO [1,2-ethanediol]
[1]
Conditions	mass density [kg/m3]	viscosity [mPa·s]
298.15 K	–	16.2
303.15 K	1106.6	14.1
308.15 K	–	11.6
313.15 K	1099.3	9.75
318.15 K	–	7.91

OCCO [1,2-ethanediol] + NC(N)=O
[2], m2 = 0
Conditions	mass density [kg/m3]	viscosity [mPa·s]
298.15 K	–	16.2
303.15 K	1106.6	14.1
308.15 K	–	11.6
313.15 K	1099.3	9.75
318.15 K	–	7.91

NC(N)=O [urea] + OCCO
[2]
Conditions	mass density, 298.15 K [kg/m3]	mass density, 303.15 K [kg/m3]	mass density, 308.15 K [kg/m3]	mass density, 313.15 K [kg/m3]	mass density, 318.15 K [kg/m3]	viscosity, 298.15 K [mPa·s]	viscosity, 303.15 K [mPa·s]	viscosity, 308.15 K [mPa·s]	viscosity, 313.15 K [mPa·s]	viscosity, 318.15 K [mPa·s]
m1 = 0.877	1118.4	1114.8	1111.1	1107.8	1103.9	17	14.9	12.1	10.1	8.13
m1 = 1.852	1127.9	1124.4	1120.7	1117.4	1113.6	18.5	16	13	10.8	8.68
m1 = 2.939	1137.2	1133.7	1130	1126.8	1122.9	20.4	17.5	14.1	11.6	9.31
m1 = 4.162	1146.3	1142.9	1139.1	1135.9	1132.1	22.1	18.8	15.1	12.4	9.86
m1 = 5.549	1155.3	1151.9	1148.1	1144.9	1141	24	20.2	16.1	13.2	10.4
m1 = 7.137	1164.4	1161.1	1157.4	1154.1	1150.3	25.7	21.5	17.1	13.9	11
